What was measured:
Akt phosphorylation = assay: Akt Phosphorylation Assay (western blot), Panc-1; assay type: cell-based, human; settings: at 10 μM, * = activation
Summary of the method: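 Panc-1 (KRas G12D) cells were treated with compound at 10 μM final (0.3% DMSO) for 6 h at 37 °C, or with serial dilutions for IC50. Cells were either serum-starved overnight in 0.5% FBS and then stimulated with 1.5 ng/ml EGF for 15 min, or kept in 10% FBS without stimulation. Akt Ser473 phosphorylation in lysates was read by western blot.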

[1] = test system: Smad2/Smad3 phosphorylation; assay: Phospho-Smad2/3 Inhibition Assay (western blot), Panc-1; assay type: cell-based, human; settings: at 10 μM, Panc-1 pancreatic cancer cell line; starred symbols = activation
Summary of the method: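 Panc-1 cells (KRas G12D), starved overnight in 0.5% FBS, treated 3 h at 37° C with compound at 10 μM final (0.3% DMSO) or serial dilutions for IC50, then stimulated with 10 ng/ml TGF-b1 for 1 h. Phospho-Smad2 (Ser465/467) and phospho-Smad3 (Ser423/425) detected by western blot.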

TNF-alpha = TNF-alpha Quantification Assay (ELISA), LPS-stimulated RAW 264.7; assay type: cell-based; settings: Mus musculus, RAW264.7; at 10 μM; read-out: TNFα: % inh.

Structure (SMILES) | % inh of Akt phosphorylation in Panc-1 (Akt phosphorylation) | % inh of Smad2/3 phosphorylation in Panc-1 [1] | inhibition at 10 µM (TNF-alpha)
CO[C@H]1C[C@H](Nc2nc(-c3nccn3C)nn3cc(-c4cccnc4)c(-c4ccccc4)c23)C1 [Compound 192, N-((1r,3r)-3-Methoxycyclobutyl)-2-(1-methyl-1H-imidazol-2-yl)-5-phenyl-6-(pyridin-3-yl)pyrrolo[2,1-f][1,2,4]triazin-4-amine] | D* (85-100% activation) | A* (A* = 1-25% activation) | 25 to 49%
COCCNc1nc(-c2nccn2C)nn2cc(-c3cccnc3)c(-c3ccccc3)c12 [Compound 195, N-(2-Methoxyethyl)-2-(1-methyl-1H-imidazol-2-yl)-5-phenyl-6-(pyridin-3-yl)pyrrolo[2,1-f][1,2,4]triazin-4-amine] | D* (85-100% activation) | A* (A* = 1-25% activation) | 0%
COc1ccnc(Nc2nc(-c3nccn3C)nn3cc(-c4cccnc4)c(-c4ccccc4)c23)c1 [Compound 196, N-(4-Methoxypyridin-2-yl)-2-(1-methyl-1H-imidazol-2-yl)-5-phenyl-6-(pyridin-3-yl)pyrrolo[2,1-f][1,2,4]triazin-4-amine] | D* (85-100% activation) | C (C = 46-75% inhibition) | 75 to 100%
CO[C@H]1C[C@@H](Nc2nc(-c3nccn3C)nn3cc(-c4ccncc4)c(-c4ccccc4)c23)C1 [Compound 198, N-((1s,3s)-3-Methoxycyclobutyl)-2-(1-methyl-1H-imidazol-2-yl)-5-phenyl-6-(pyridin-4-yl)pyrrolo[2,1-f][1,2,4]triazin-4-amine] | C (50-84% inhibition) | A (A = 1-25% inhibition) | 25 to 49%
CO[C@H]1C[C@H](Nc2nc(-c3nccn3C)nn3cc(-c4ccncc4)c(-c4ccccc4)c23)C1 [Compound 199, N-((1r,3r)-3-Methoxycyclobutyl)-2-(1-methyl-1H-imidazol-2-yl)-5-phenyl-6-(pyridin-4-yl)pyrrolo[2,1-f][1,2,4]triazin-4-amine] | A (1-25% inhibition) | B (B = 26-45% inhibition) | 1 to 24%
COCCNc1nc(-c2nccn2C)nn2cc(-c3ccncc3)c(-c3ccccc3)c12 [Compound 202, N-(2-Methoxyethyl)-2-(1-methyl-1H-imidazol-2-yl)-5-phenyl-6-(pyridin-4-yl)pyrrolo[2,1-f][1,2,4]triazin-4-amine] | B (26-49% inhibition) | A (A = 1-25% inhibition) | 1 to 24%
CO[C@H]1C[C@H](Nc2nc(-c3nccn3C)nn3cc(-c4ccccc4)c(-c4ccccc4)c23)C1 [Compound 203, N-((1r,3r)-3-Methoxycyclobutyl)-2-(1-methyl-1H-imidazol-2-yl)-5,6-diphenylpyrrolo[2,1-f][1,2,4]triazin-4-amine] | D (85-100% inhibition) | D (D = 76-100% inhibition) | 75 to 100%
CO[C@H]1C[C@H](Nc2nc(-c3nccn3C)nn3cc(-c4cccc(CN)c4)c(-c4ccccc4)c23)C1 [Compound 204, 6-(3-(aminomethyl)phenyl)-N-((1r,3r)-3-methoxycyclobutyl)-2-(1-methyl-1H-imidazol-2-yl)-5-phenylpyrrolo[2,1-f][1,2,4]triazin-4-amine] | C* (46-84% activation) | A (A = 1-25% inhibition) | 25 to 49%
CO[C@H]1C[C@H](Nc2nc(-c3nccn3C)nn3cc(-c4ccc(CN)cc4)c(-c4ccccc4)c23)C1.Cl [Compound 206, 6-(4-(Aminomethyl)phenyl)-N-((1r,3r)-3-methoxycyclobutyl)-2-(1-methyl-1H-imidazol-2-yl)-5-phenylpyrrolo[2,1-f][1,2,4]triazin-4-amine hydrochloride salt] | C (50-84% inhibition) | B (B = 26-45% inhibition) | 1 to 24%
CO[C@H]1C[C@H](Nc2nc(-c3nccn3C)nn3cc(-c4ccc(CCN)cc4)c(-c4ccccc4)c23)C1.Cl [Compound 207, 6-(4-(2-Aminoethyl)phenyl)-N-((1r,3r)-3-methoxycyclobutyl)-2-(1-methyl-1H-imidazol-2-yl)-5-phenylpyrrolo[2,1-f][1,2,4]triazin-4-amine hydrochloride salt] | C* (46-84% activation) | D (D = 76-100% inhibition) | 75 to 100%
CO[C@H]1C[C@H](Nc2nc(-c3nccn3C)nn3cc(-c4ccc(OCCN)cc4)c(-c4ccccc4)c23)C1.Cl [Compound 208, 6-(4-(2-Aminoethoxy)phenyl)-N-((1r,3r)-3-methoxycyclobutyl)-2-(1-methyl-1H-imidazol-2-yl)-5-phenylpyrrolo[2,1-f][1,2,4]triazin-4-amine hydrochloride salt] | D* (85-100% activation) | D (D = 76-100% inhibition) | 25 to 49%
COc1cccc(-c2cn3nc(-c4nccn4C)nc(N[C@H]4C[C@H](OC)C4)c3c2-c2ccccc2)c1C [Compound 209, 6-(3-methoxy-2-methylphenyl)-N-((1r,3r)-3-methoxycyclobutyl)-2-(1-methyl-1H-imidazol-2-yl)-5-phenylpyrrolo[2,1-f][1,2,4]triazin-4-amine] | D (85-100% inhibition) | D (D = 76-100% inhibition) | 75 to 100%
CO[C@H]1C[C@H](Nc2nc(-c3nccn3C)nn3cc(-c4cccc5c4CCO5)c(-c4ccccc4)c23)C1 [Compound 210, 6-(2,3-Dihydrobenzofuran-4-yl)-N-((1r,3r)-3-methoxycyclobutyl)-2-(1-methyl-1H-imidazol-2-yl)-5-phenylpyrrolo[2,1-f][1,2,4]triazin-4-amine] | D (85-100% inhibition) | D (D = 76-100% inhibition) | 75 to 100%
Cc1c(-c2ccn(C)n2)cn2nc(-c3nccn3C)nc(N)c12 [Compound 211, 5-Methyl-2-(1-methyl-1H-imidazol-2-yl)-6-(1-methyl-1H-pyrazol-3-yl)pyrrolo[2,1-f][1,2,4]triazin-4-amine] | A (1-25% inhibition) | D (D = 76-100% inhibition) | 0%
Cn1ccnc1-c1nc(NS(C)(=O)=O)c2c(-c3ccccc3)c(-c3ccccc3)cn2n1 [Compound 212, N-(2-(1-Methyl-1H-imidazol-2-yl)-5,6-diphenylpyrrolo[2,1-f][1,2,4]triazin-4-yl) methanesulfonamide] | A* (1-25% activation) | C (C = 46-75% inhibition) | 0%
COCCCS(=O)(=O)Nc1nc(-c2nccn2C)nn2cc(-c3ccccc3)c(-c3ccccc3)c12 [Compound 213, 3-Methoxy-N-(2-(1-methyl-1H-imidazol-2-yl)-5,6-diphenylpyrrolo[2,1-f][1,2,4]triazin-4-yl)propane-1-sulfonamide] | D* (85-100% activation) | B (B = 26-45% inhibition) | 0%
CO[C@H]1C[C@H](S(=O)(=O)Nc2nc(-c3nccn3C)nn3cc(-c4ccccc4)c(-c4ccccc4)c23)C1 [Compound 214, (1r,3r)-3-Methoxy-N-(2-(1-methyl-1H-imidazol-2-yl)-5,6-diphenylpyrrolo[2,1-f][1,2,4]triazin-4-yl)cyclobutane-1-sulfonamide] | A* (1-25% activation) | D (D = 76-100% inhibition) | 0%
COc1ccnc(Nc2nc(-c3nccn3C)nn3cc(-c4ccn(CCNC(=O)CCCC[C@H]5SC[C@H]6NC(=O)N[C@H]65)n4)c(C)c23)c1 [Compound 215, N-(2-(3-(4-((4-methoxypyridin-2-yl)amino)-5-methyl-2-(1-methyl-1H-imidazol-2-yl)pyrrolo[2,1-f][1,2,4]triazin-6-yl)-1H-pyrazol-1-yl)ethyl)-5-((3aR,4R,6aS)-2-oxohexahydro-1H-thieno[3,4-d]imidazol-4-yl)pentanamide] | B* (26-49% activation) | C (C = 46-75% inhibition) | 25 to 49%
COc1ccnc(Nc2nc(-c3nccn3CCNC(=O)CCCC[C@H]3SC[C@H]4NC(=O)N[C@H]43)nn3cc(-c4ccn(C)n4)c(C)c23)c1 [Compound 216, N-(2-(2-(4-((4-methoxypyridin-2-yl)amino)-5-methyl-6-(1-methyl-1H-pyrazol-3-yl)pyrrolo[2,1-f][1,2,4]triazin-2-yl)-1H-imidazol-1-yl)ethyl)-5-((3aR,4R,6aS)-2-oxohexahydro-1H-thieno[3,4-d]imidazol-4-yl)pentanamide] | A* (1-25% activation) | C* (C* = 46-75% activation) | 25 to 49%
COc1ccnc(Nc2nc(-c3nccn3C)nn3cc(-c4c(F)cccc4OC)c(-c4ccccc4)c23)c1 [Compound 217, 6-(2-Fluoro-6-methoxyphenyl)-N-(4-methoxypyridin-2-yl)-2-(1-methyl-1H-imidazol-2-yl)-5-phenylpyrrolo[2,1-f][1,2,4]triazin-4-amine] | D* (85-100% activation) | C (C = 46-75% inhibition) | 25 to 49%
